# What was measured:
# Alternaria mali IFO 8984 = format: cell-based; settings: IFO8984, 20 μg/disc (diameter 8 mm), read-out: Inhibition Circle
# Description: (§1) The value in paretheses in the table denotes a partial inhibition.
# [1] = system: Candida albicans IFO 1594; format: cell-based; settings: IFO1594, 20 μg/disc (diameter 8 mm), read-out: Inhibition Circle
# Description: as §1
# Chlorella vulgaris = format: cell-based; settings: 20 μg/disc (diameter 8 mm), read-out: Inhibition Circle
# Description: as §1
# [2] = system: Colletotrichum lagenarium IFO 7513; format: cell-based; settings: Colletotrichum orbiculare, IFO7513; 20 μg/disc (diameter 8 mm); value in parentheses denotes a partial inhibition; read-out: Inhibition Circle
# Description: as §1
# Escherichia coli AB 1157 = format: cell-based; settings: AB1157, 20 μg/disc (diameter 8 mm), read-out: Inhibition Circle
# Description: as §1
# Escherichia coli BE 1186 = format: cell-based; settings: BE1186, 20 μg/disc (diameter 8 mm), read-out: Inhibition Circle
# Description: as §1
# [3] = system: Pseudomonas aeruginosa IFO 13130; format: cell-based; settings: IFO13130, 20 μg/disc (diameter 8 mm), read-out: Inhibition Circle
# Description: as §1
# [4] = system: Pyricularia oryzae IFO 5994; experiment: microbe, parasite or virus in culture; format: cell-based; settings: IFO5994, read-out: Inhibition Circle
# KB = experiment: Cell-killing activity; format: cell-based; settings: Homo sapiens; KB cells; read-out: ID50 (concentration at which 50% of cancer cells are killed)
# HeLa = experiment: Cell-killing activity; format: cell-based; settings: Homo sapiens; HeLa cells; read-out: ID50 (concentration at which 50% of cancer cells are killed)
# Solubility = format: physicochemical
smiles,measurement,setting,value
CC=C(C)C(O)C(C)C=C(C)C=CCC(C)=CCc1nc(OC)c(OC)c(OC2OC(C)C(O)C(O)C2O)c1C (stereo not drawn),zone of inhibition at 20 µg/disc,Alternaria mali IFO 8984,0 mm
same,zone of inhibition at 20 µg/disc,[1],0 mm
same,zone of inhibition at 20 µg/disc,Chlorella vulgaris,0 mm
same,zone of inhibition at 20 µg/disc,[2],13.3 mm
same,zone of inhibition at 20 µg/disc,Escherichia coli AB 1157,0 mm
same,zone of inhibition at 20 µg/disc,Escherichia coli BE 1186,0 mm
same,zone of inhibition at 20 µg/disc,[3],0 mm
same,zone of inhibition at 20 µg/disc,[4],19.1 mm
same,IC50,KB,0.74 µg/mL
same,IC50,HeLa,2.8 µg/mL
same,Solubility,"Solubility; chloroform, dimethyl sulfoxide, methanol, acetone","Soluble in chloroform, dimethyl sulfoxide, methanol and acetone"
same,Solubility,"Solubility; n-hexane, water",Insoluble in n-hexane and water

# — patent US5126436A (priority 1989, dated 1992)
